Experiments:
[1] = biological target: T1, human Cereblon WT GST-tagged protein (Homo sapiens, UniProt Q96SW2); assay: CRBN-binding affinity, CEREBLON BINDING kit (HTRF); conditions: for inhibition at 0.5 µM: read-out: Inhibition Rate at 0.5 µM (%); for inhibition at 2 µM: read-out: Inhibition Rate at 2 µM (%)
T1 construct: purchased CISBIO 64BDCRBNPEH
Excerpt: The CEREBLON BINDING kits (specification: 10,000 tests; product number: Catalog # 64BDCRBNPEH; CISBIO company) was used to determine the CRBN binding ability of the compounds to be tested through a HTRF method (homogeneous time-resolved fluorescence). The specific methods are as follows: • 1. […] Specifically, diluent #9 (1X) solution was used as the diluent, and multiple concentration gradients were set. […] Into the 96-well plate, the diluted test compounds and corresponding detection reagents were added, resulting in final test compound concentrations of 2 µM and 0.5 µM, respectively. […] Then, 2.5 µL of human Cereblon WT GST-tagged protein solution was added to each well. Finally, 5 µL of the thoroughly mixed Thalidomide-Re reagent and GST Eu antibody working solution were added to each of the aforementioned wells. […] The blank control wells were sequentially added with 2.5 µL of diluent #9 (1X) solution, 2.5 µL of binding buffer, and 5 µL of thoroughly mixed Thalidomide-Re reagent and GST Eu antibody working solution. • 4. […] OD 620 nm control is the absorbance value of the blank control well at an emission wavelength of 620 nm. […] OD 620 nm Std0 is the absorbance value of the solvent control well at an emission wavelength of 620 nm.

MM.1S = assay: Cell viability assay (CellTiter-Meiluncell Luminescent), tumor cell proliferation, MM.1S; conditions: Homo sapiens, MM1.S, 96 h
WEE1 = biological target: T2, WEE1 (Homo sapiens, UniProt P30291+Q96SW2); assay: Western-blot assay, substrate protein degradation in hPBMCs: WEE1; format: cell-based; conditions: 24 hours of compound treatment, 50 nM and 500 nM
T2 construct: effects of the compounds of the present disclosure on the expression of target proteins in cells; endogenous in cells; host or cells: human PBMCs (hPBMCs)

IKZF1 = biological target: T3, IKZF1 (Homo sapiens, UniProt Q13422+Q96SW2); assay: Western-blot assay, substrate protein degradation in hPBMCs: IKZF1; format: cell-based; conditions: 24 hours of compound treatment, 50 nM and 500 nM
T3 construct: effects of the compounds of the present disclosure on the expression of target proteins in cells; endogenous in cells; host or cells: human PBMCs (hPBMCs)
T3 sequence (Q13422 whole entry): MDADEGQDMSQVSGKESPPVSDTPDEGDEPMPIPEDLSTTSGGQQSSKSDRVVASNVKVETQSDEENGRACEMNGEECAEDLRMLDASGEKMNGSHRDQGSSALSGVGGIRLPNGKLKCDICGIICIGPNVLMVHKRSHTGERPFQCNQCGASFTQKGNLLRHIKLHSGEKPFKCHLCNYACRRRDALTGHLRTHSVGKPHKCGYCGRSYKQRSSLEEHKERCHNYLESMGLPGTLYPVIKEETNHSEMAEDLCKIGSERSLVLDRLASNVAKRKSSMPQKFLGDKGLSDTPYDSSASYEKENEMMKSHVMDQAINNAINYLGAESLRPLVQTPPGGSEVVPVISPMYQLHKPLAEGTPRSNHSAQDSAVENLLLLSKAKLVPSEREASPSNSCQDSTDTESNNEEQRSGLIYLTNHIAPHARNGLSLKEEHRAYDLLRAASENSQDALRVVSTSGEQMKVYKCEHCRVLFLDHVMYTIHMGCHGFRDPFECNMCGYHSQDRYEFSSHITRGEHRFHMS
T3 sequence (Q96SW2 whole entry): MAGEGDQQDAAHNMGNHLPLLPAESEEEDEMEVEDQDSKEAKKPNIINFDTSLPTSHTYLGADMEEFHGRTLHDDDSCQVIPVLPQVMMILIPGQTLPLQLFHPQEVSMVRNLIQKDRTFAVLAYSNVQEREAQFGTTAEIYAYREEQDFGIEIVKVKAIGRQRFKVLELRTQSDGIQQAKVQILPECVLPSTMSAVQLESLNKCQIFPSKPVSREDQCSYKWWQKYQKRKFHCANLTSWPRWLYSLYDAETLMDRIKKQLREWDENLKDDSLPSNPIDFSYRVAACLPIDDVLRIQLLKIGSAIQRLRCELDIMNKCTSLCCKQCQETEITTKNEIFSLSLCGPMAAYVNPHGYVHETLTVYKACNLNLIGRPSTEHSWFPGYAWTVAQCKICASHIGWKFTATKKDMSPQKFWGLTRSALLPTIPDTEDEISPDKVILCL
T3 sequence (Q16531 whole entry partner): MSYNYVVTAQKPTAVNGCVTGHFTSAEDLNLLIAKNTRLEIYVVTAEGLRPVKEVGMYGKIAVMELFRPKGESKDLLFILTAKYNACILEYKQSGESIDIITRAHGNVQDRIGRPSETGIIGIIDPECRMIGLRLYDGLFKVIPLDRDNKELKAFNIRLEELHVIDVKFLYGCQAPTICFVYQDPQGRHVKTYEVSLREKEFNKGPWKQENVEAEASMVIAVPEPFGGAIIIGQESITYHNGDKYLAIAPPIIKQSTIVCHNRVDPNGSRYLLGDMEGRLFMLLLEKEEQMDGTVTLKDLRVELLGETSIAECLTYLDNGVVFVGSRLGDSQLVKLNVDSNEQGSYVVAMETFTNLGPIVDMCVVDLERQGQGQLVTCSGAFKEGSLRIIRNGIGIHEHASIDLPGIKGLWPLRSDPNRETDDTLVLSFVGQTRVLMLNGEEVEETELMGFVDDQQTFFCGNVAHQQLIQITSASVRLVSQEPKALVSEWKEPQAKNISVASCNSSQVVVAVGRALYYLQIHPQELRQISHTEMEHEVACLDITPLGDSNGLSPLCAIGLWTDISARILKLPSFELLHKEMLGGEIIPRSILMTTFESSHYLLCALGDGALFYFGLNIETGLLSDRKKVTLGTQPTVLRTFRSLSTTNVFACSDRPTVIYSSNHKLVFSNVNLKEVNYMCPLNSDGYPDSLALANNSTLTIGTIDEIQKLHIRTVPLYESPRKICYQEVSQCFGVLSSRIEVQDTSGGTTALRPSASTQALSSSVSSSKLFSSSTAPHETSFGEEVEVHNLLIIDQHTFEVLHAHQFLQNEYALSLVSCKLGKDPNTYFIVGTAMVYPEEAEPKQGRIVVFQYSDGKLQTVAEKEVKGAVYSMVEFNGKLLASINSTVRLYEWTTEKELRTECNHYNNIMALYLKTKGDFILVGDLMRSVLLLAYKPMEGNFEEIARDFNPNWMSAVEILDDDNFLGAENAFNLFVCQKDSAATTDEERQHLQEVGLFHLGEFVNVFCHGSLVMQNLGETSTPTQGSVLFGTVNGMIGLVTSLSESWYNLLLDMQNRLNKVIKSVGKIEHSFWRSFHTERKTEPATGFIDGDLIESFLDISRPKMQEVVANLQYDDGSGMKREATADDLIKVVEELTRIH

IKZF2 = biological target: T4, IKZF2 (Homo sapiens, UniProt Q96SW2+Q9UKS7); assay: Western-blot assay, substrate protein degradation in hPBMCs: IKZF2; format: cell-based; conditions: 24 hours of compound treatment, 50 nM and 500 nM
T4 construct: effects of the compounds of the present disclosure on the expression of target proteins in cells; endogenous in cells; host or cells: human PBMCs (hPBMCs)
T4 sequence (Q9UKS7 whole entry): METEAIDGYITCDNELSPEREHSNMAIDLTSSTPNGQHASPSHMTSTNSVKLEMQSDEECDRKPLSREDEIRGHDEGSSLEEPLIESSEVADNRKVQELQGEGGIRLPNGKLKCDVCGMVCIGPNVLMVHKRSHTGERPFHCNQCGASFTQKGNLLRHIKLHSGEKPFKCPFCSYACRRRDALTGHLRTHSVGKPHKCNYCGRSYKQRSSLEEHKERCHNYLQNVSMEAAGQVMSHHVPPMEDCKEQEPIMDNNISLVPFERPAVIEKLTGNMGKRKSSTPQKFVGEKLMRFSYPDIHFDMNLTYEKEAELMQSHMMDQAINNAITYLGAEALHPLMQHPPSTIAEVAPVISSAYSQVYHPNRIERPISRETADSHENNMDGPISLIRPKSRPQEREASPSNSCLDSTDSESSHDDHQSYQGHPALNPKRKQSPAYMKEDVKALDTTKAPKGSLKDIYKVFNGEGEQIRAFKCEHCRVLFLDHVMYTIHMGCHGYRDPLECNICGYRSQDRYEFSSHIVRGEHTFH
T4 sequence (Q96SW2 whole entry): as the sequence (Q96SW2 whole entry) above
T4 sequence (Q16531 whole entry partner): as the sequence (Q16531 whole entry partner) above

IKZF3 = biological target: T5, IKZF3 (Homo sapiens, UniProt Q96SW2+Q9UKT9); assay: Western-blot assay, substrate protein degradation in hPBMCs: IKZF3; format: cell-based; conditions: 24 hours of compound treatment, 50 nM and 500 nM
T5 construct: effects of the compounds of the present disclosure on the expression of target proteins in cells; endogenous in cells; host or cells: human PBMCs (hPBMCs)
T5 sequence (Q9UKT9 whole entry): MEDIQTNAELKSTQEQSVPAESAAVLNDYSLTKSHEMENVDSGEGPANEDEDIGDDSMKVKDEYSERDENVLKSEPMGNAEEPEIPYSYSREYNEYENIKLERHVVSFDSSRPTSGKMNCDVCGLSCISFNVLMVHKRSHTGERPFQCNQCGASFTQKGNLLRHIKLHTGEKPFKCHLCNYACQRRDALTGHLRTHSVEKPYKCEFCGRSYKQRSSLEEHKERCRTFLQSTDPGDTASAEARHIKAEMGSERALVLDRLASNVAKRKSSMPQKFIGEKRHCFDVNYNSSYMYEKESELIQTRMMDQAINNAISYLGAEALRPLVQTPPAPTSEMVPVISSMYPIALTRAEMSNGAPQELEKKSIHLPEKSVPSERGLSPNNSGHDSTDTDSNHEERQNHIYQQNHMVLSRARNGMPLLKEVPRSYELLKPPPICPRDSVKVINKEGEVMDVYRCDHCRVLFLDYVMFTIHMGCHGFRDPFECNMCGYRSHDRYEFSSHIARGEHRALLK
T5 sequence (Q96SW2 whole entry): as the sequence (Q96SW2 whole entry) above
T5 sequence (Q16531 whole entry partner): as the sequence (Q16531 whole entry partner) above

CK1α = biological target: T6, CK1α (Homo sapiens, UniProt P48729+Q96SW2); assay: Western-blot assay, substrate protein degradation in hPBMCs: CK1α; format: cell-based; conditions: 24 hours of compound treatment, 50 nM and 500 nM
T6 construct: effects of the compounds of the present disclosure on the expression of target proteins in cells; endogenous in cells; host or cells: human PBMCs (hPBMCs)
T6 sequence (P48729 whole entry): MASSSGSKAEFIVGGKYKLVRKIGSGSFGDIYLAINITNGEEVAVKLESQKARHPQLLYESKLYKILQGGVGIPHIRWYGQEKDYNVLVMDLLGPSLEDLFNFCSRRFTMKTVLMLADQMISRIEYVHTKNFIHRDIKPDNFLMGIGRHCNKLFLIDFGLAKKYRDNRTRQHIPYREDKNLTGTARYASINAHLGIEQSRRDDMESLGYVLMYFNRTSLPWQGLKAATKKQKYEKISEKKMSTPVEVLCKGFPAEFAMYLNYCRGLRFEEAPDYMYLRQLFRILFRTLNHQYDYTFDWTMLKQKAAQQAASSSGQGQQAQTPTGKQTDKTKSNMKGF
T6 sequence (Q96SW2 whole entry): as the sequence (Q96SW2 whole entry) above
T6 sequence (Q16531 whole entry partner): as the sequence (Q16531 whole entry partner) above

GSPT1 = biological target: T7, GSPT1 (Homo sapiens, UniProt P15170+Q96SW2); assay: Western-blot assay, substrate protein degradation in hPBMCs: GSPT1; format: cell-based; conditions: 24 hours of compound treatment, 50 nM and 500 nM
T7 construct: effects of the compounds of the present disclosure on the expression of target proteins in cells; endogenous in cells; host or cells: human PBMCs (hPBMCs)
T7 sequence (P15170 whole entry): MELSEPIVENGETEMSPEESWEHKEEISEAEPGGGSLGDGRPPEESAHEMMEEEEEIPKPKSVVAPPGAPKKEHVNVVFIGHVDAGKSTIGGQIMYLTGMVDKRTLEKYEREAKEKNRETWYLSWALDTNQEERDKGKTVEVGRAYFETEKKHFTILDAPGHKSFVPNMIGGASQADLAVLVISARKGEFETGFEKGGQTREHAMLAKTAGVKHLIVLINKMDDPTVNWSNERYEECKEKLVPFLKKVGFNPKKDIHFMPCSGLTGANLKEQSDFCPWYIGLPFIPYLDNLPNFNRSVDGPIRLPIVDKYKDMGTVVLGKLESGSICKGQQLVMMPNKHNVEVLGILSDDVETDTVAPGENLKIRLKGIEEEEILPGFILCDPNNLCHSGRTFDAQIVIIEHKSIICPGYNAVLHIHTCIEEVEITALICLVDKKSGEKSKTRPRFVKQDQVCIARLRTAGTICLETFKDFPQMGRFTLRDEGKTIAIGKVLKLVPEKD
T7 sequence (Q96SW2 whole entry): as the sequence (Q96SW2 whole entry) above
T7 sequence (Q16531 whole entry partner): as the sequence (Q16531 whole entry partner) above

H292 = assay: Cell viability assay (CellTiter-Meiluncell Luminescent), tumor cell proliferation, H292; conditions: Homo sapiens, NCI-H292, 96 h; for inhibition at 0.01 µM: read-out: Inhibition Rate at 10 nM (%); for inhibition at 0.5 µM: read-out: Inhibition Rate at 500 nM (%)
MV-4-11 = assay: Cell viability assay (CellTiter-Meiluncell Luminescent), tumor cell proliferation, MV-4-11; conditions: Homo sapiens, MV4-11, 96 h; for inhibition at 0.01 µM: read-out: Inhibition Rate at 10 nM (%); for inhibition at 0.5 µM: read-out: Inhibition Rate at 500 nM (%)
MDA-MB-231 = assay: Cell viability assay (CellTiter-Meiluncell Luminescent), tumor cell proliferation, MDA-MB-231; conditions: Homo sapiens, MDA-MB-231, 96 h; for inhibition at 0.01 µM: read-out: Inhibition Rate at 10 nM (%); for inhibition at 0.5 µM: read-out: Inhibition Rate at 500 nM (%)
H2228 = assay: Cell viability assay (CellTiter-Meiluncell Luminescent), tumor cell proliferation, H2228; conditions: Homo sapiens, NCI-H2228, 96 h; for inhibition at 0.01 µM: read-out: Inhibition Rate at 10 nM (%); for inhibition at 0.5 µM: read-out: Inhibition Rate at 500 nM (%)

T1 sequence (Q96SW2 whole entry): as the sequence (Q96SW2 whole entry) above

SMILES | IC50 ([1]; 3 hours at room temperature) [nM] | IC50 (MM.1S; read-out: inhibitory activity (IC50, nM) against tumor cells proliferation, MM.1S) [nM] | substrate protein remaining % WEE1 (WEE1) | substrate protein remaining % IKZF1 (IKZF1) | substrate protein remaining % IKZF2 (IKZF2) | substrate protein remaining % IKZF3 (IKZF3) | substrate protein remaining % CK1α (CK1α) | substrate protein remaining % GSPT1 (GSPT1) | inhibition at 0.5 µM [1] [%] | inhibition at 2 µM [1] [%] | inhibition at 0.01 µM (H292) [%] | inhibition at 0.5 µM (H292) [%] | inhibition at 0.01 µM (MV-4-11) [%] | inhibition at 0.5 µM (MV-4-11) [%] | inhibition at 0.01 µM (MDA-MB-231) [%] | inhibition at 0.5 µM (MDA-MB-231) [%] | inhibition at 0.01 µM (H2228) [%] | inhibition at 0.5 µM (H2228) [%] | inhibition at 0.01 µM (MM.1S; read-out: Inhibition Rate at 10 nM (%)) [%] | inhibition at 0.5 µM (MM.1S; read-out: Inhibition Rate at 500 nM (%)) [%]
N#Cc1ccc(N2CCN(Cc3ccc(COc4cccc5c4CN(N4CCC(=O)NC4=O)C5=O)cc3)CC2)c(F)c1 [GT-06132, 4-(4-(4-(((2-(2,4-dioxotetrahydropyrimidin-1(2H)-yl)-1-oxoisoindolin-4-yl)oxy)methyl)benzyl)piperazin-1-yl)-3-fluorobenzonitrile] | 1000 to 1500 | 100 to 300 |  |  |  |  |  |  |  |  |  |  |  |  |  |  |  |  |  | 
Cc1nc(N2CCN(Cc3ccc4c(c3)CN(N3CCC(=O)NC3=O)C4=O)CC2)c2c(-c3ccccc3)csc2n1 [GT-08066, 1-(5-((4-(2-methyl-5-phenylthieno[2,3-d]pyrimidin-4-yl)piperazin-1-yl)methyl)-1-oxoisoindolin-2-yl)dihydropyrimidine-2,4(1H,3H)-dione] |  |  | B (80%< substrate protein remaining %≤ 100%) | B (80%< substrate protein remaining %≤ 100%) | A (0% ≤ substrate protein remaining % ≤ 80%) | B (80%< substrate protein remaining %≤ 100%) | A (0% ≤ substrate protein remaining % ≤ 80%) | B (80%< substrate protein remaining %≤ 100%) | 20 to 30 | 60 to 80 | 20 to 40 | 20 to 40 | 18 to 25 | 10 to 18 | 15 to 18 | 15 to 18 |  |  |  | 
Cc1nc(N2CCN(Cc3ccc4c(c3)CN(N3CCC(=O)NC3=O)C4=O)CC2)c2c3c(sc2n1)CCC3 [GT-08080, 1-(5-((4-(2-methyl-6,7-dihydro-5H-cyclopenta[4,5]thieno[2,3-d]pyrimidin-4-yl)piperazin-1-yl)methyl)-1-oxoisoindolin-2-yl)dihydropyrimidine-2,4(1H,3H)-dione] |  |  | A (0% ≤ substrate protein remaining % ≤ 80%) | B (80%< substrate protein remaining %≤ 100%) | B (80%< substrate protein remaining %≤ 100%) | B (80%< substrate protein remaining %≤ 100%) | A (0% ≤ substrate protein remaining % ≤ 80%) | A (0% ≤ substrate protein remaining % ≤ 80%) | 20 to 30 | 53 to 60 | 40 to 60 | 20 to 40 |  |  | 18 to 25 | 15 to 18 | 30 to 40 | 20 to 25 |  | 
O=C1CCN(N2Cc3cc(CN4CCN(c5ncnc6scc(-c7ccccc7)c56)CC4)ccc3C2=O)C(=O)N1 [GT-08065, 1-(1-oxo-5-((4-(5-phenylthieno[2,3-d]pyrimidin-4-yl)piperazin-1-yl)methyl)isoindolin-2-yl)dihydropyrimidine-2,4(1H,3H)-dione] |  |  | B (80%< substrate protein remaining %≤ 100%) | B (80%< substrate protein remaining %≤ 100%) | A (0% ≤ substrate protein remaining % ≤ 80%) | B (80%< substrate protein remaining %≤ 100%) | B (80%< substrate protein remaining %≤ 100%) | B (80%< substrate protein remaining %≤ 100%) | 20 to 30 | 60 to 80 | 20 to 40 | 20 to 40 | 30 to 40 | 10 to 18 |  |  | 20 to 25 | 25 to 30 | 20 to 30 | 20 to 30
